{"source": "ChEMBL document CHEMBL4732083", "about": "“Synthesis and anti-inflammatory activity of saponin derivatives of δ-oleanolic acid” (Eur J Med Chem, 2021)", "key": {"[1]": {"target": "AMP-activated protein kinase, AMPK (Homo sapiens) (UniProt P54646+O43741+P54619+Q9UGJ0+Q9Y478+Q13131+Q9UGI9)", "assay": "Activation of AMPK in human Huh-7 cells assessed as increase in AMPK phosphorylation at Thr172 residue at 10 uM measured after 12 hrs by Western blot analysis", "assay_type": "cell-based", "conditions": "filed as activator"}, "THP-1 [2]": {"test_system": "THP-1", "assay": "Antiinflammatory activity in human THP-1 cells assessed as reduction in LPS-induced TNF alpha secretion at 10 uM incubated for 12 hrs measured by ELISA", "assay_type": "functional, cell-based"}, "THP-1 [3]": {"test_system": "THP-1", "assay": "Antiinflammatory activity in human THP-1 cells assessed as reduction in LPS-induced IL6 secretion at 10 uM incubated for 12 hrs measured by ELISA", "assay_type": "functional, cell-based"}, "[4]": {"assay": "Metabolic stability in human liver microsomes assessed as half life in presence of NADPH by LC-MS analysis", "assay_type": "ADME, Microsome"}, "[5]": {"assay": "Metabolic stability in mouse liver microsomes assessed as half life in presence of NADPH by LC-MS analysis", "assay_type": "ADME, Microsome"}, "[6]": {"assay": "Metabolic stability in human liver microsomes assessed as intrinsic clearance in presence of NADPH by LC-MS analysis", "assay_type": "ADME, Microsome", "conditions": "read-out: CLH"}, "[7]": {"assay": "Metabolic stability in mouse liver microsomes assessed as intrinsic clearance in presence of NADPH by LC-MS analysis", "assay_type": "ADME, Microsome", "conditions": "read-out: CLH"}, "THP-1 [8]": {"test_system": "THP-1", "assay": "Cytotoxicity against human THP-1 cells assessed as reduction in cell viability at 1 to 10 uM", "assay_type": "cell-based", "conditions": "thp-1, 10 µM"}, "[9]": {"assay": "Tmax in BALB/c mouse at 10 mg/kg, po by LC/MS-MS analysis", "assay_type": "ADME, organism-based", "conditions": "in vivo"}, "[10]": {"assay": "Tmax in BALB/c mouse at 2 mg/kg, iv by LC/MS-MS analysis", "assay_type": "ADME, organism-based", "conditions": "in vivo"}, "[11]": {"assay": "Cmax in BALB/c mouse at 10 mg/kg, po by LC/MS-MS analysis", "assay_type": "ADME, organism-based", "design": "route oral, dose 10 mg/kg", "conditions": "in vivo"}, "[12]": {"assay": "Cmax in BALB/c mouse at 2 mg/kg, iv by LC/MS-MS analysis", "assay_type": "ADME, organism-based", "design": "route intravenous, dose 2 mg/kg", "conditions": "in vivo"}, "[13]": {"assay": "AUC (0 to t) in BALB/c mouse at 10 mg/kg, po by LC/MS-MS analysis", "assay_type": "ADME, organism-based", "design": "dose 10 mg/kg", "conditions": "in vivo"}, "[14]": {"assay": "AUC (0 to t) in BALB/c mouse at 2 mg/kg, iv by LC/MS-MS analysis", "assay_type": "ADME, organism-based", "design": "dose 2 mg/kg", "conditions": "in vivo"}, "[15]": {"assay": "AUC (0 to infinity) in BALB/c mouse at 10 mg/kg, po by LC/MS-MS analysis", "assay_type": "ADME, organism-based", "design": "route oral, time infinity, dose 10 mg/kg", "conditions": "in vivo"}, "[16]": {"assay": "AUC (0 to infinity) in BALB/c mouse at 2 mg/kg, iv by LC/MS-MS analysis", "assay_type": "ADME, organism-based", "design": "route intravenous, time infinity, dose 2 mg/kg", "conditions": "in vivo"}, "[17]": {"assay": "Half life in BALB/c mouse at 10 mg/kg, po by LC/MS-MS analysis", "assay_type": "ADME, organism-based", "conditions": "in vivo"}, "[18]": {"assay": "Half life in BALB/c mouse at 2 mg/kg, iv by LC/MS-MS analysis", "assay_type": "ADME, organism-based", "conditions": "in vivo"}, "[19]": {"assay": "Bioavailability in BALB/c mouse at 10 mg/kg, po by LC/MS-MS analysis", "assay_type": "ADME, organism-based", "conditions": "in vivo"}}, "note": "Active and inactive are the calls of the source. No cut-off for these calls is given here."}
{"smiles": "C[C@H]1[C@H](C)CC[C@]2(C(=O)O[C@@H]3O[C@H](CO[C@@H]4O[C@H](CO)[C@@H](O[C@@H]5O[C@@H](C)[C@H](O)[C@@H](O)[C@H]5O)[C@H](O)[C@H]4O)[C@@H](O)[C@H](O)[C@H]3O)CC[C@]3(C)C(=CC[C@@H]4[C@@]5(C)C[C@@H](O)[C@H](O)[C@@](C)(CO)[C@@H]5[C@H](O)C[C@]43C)[C@H]12", "values": [{"measurement": "Activity", "setting": "[1]", "value": "Active"}]}
{"smiles": "CC1(C)CC[C@]2(C(=O)O)CC[C@]3(C)C(=CC[C@@H]4[C@@]5(C)CC[C@H](O[C@@H]6O[C@H](C(=O)O)[C@@H](O)[C@H](O)[C@H]6O)C(C)(C)[C@@H]5CC[C@]43C)[C@@H]2C1", "values": [{"measurement": "Activity", "setting": "[1]", "value": "Active"}]}
{"smiles": "CC1(C)CC[C@]2(C(=O)O[C@@H]3O[C@H](CO[C@@H]4O[C@H](CO)[C@@H](O)[C@H](O)[C@H]4O)[C@@H](O)[C@H](O)[C@H]3O)CC[C@]3(C)C(=CC[C@@H]4[C@@]5(C)CC[C@H](O[C@@H]6OC[C@H](O)[C@H](O)[C@H]6O)[C@@](C)(CO)[C@@H]5CC[C@]43C)[C@@H]2C1", "values": [{"measurement": "Activity", "setting": "[1]", "value": "Active"}]}
{"smiles": "C[C@H]1[C@H](C)CC[C@]2(C(=O)O)CC[C@]3(C)C(=CC[C@@H]4[C@@]5(C)C[C@@H](O)[C@H](O)[C@@](C)(CO)[C@@H]5CC[C@]43C)[C@H]12", "values": [{"measurement": "Activity", "setting": "[1]", "value": "Active"}]}
{"smiles": "CC1(C)[C@@H](O[C@H]2O[C@H](C(=O)O)[C@@H](O)[C@H](O)[C@H]2O[C@@H]2O[C@H](C(=O)O)[C@@H](O)[C@H](O)[C@H]2O)CC[C@]2(C)[C@H]3C(=O)C=C4[C@@H]5C[C@@](C)(C(=O)O)CC[C@]5(C)CC[C@@]4(C)[C@]3(C)CC[C@@H]12", "values": [{"measurement": "Activity", "setting": "[1]", "value": "Active"}]}
{"smiles": "CC1(C)CC[C@]2(C(=O)O)CC[C@]3(C)C(=C2C1)CC[C@@H]1[C@@]2(C)CC[C@H](O[C@@H]4OC[C@H](O)[C@H](O)[C@H]4O[C@@H]4O[C@H](CO)[C@@H](O)[C@H](O)[C@H]4O)C(C)(C)[C@@H]2CC[C@]13C", "values": [{"measurement": "Activity", "setting": "THP-1 [2]", "value": "Active"}, {"measurement": "Activity", "setting": "THP-1 [3]", "value": "Active"}]}
{"smiles": "O=C(c1ccc(F)cc1)C1CCN(CCn2c(=O)[nH]c3ccccc3c2=O)CC1", "note": "[KETANSERIN]", "values": [{"measurement": "half-life", "setting": "[4]", "value": 42.4, "unit": "min"}, {"measurement": "half-life", "setting": "[5]", "value": 19.3, "unit": "min"}, {"measurement": "CLint scaled", "setting": "[6]", "value": 41, "unit": "mL/min/kg"}, {"measurement": "CLint scaled", "setting": "[7]", "value": 283, "unit": "mL/min/kg"}]}
{"smiles": "C[C@@H]1O[C@@H](O[C@H]2[C@H](O[C@H]3CC[C@@]4(C)[C@@H](CC[C@]5(C)[C@@H]4CC=C4[C@@H]6CC(C)(C)CC[C@]6(C(=O)O[C@@H]6O[C@H](CO[C@@H]7O[C@H](CO)[C@@H](O[C@@H]8O[C@@H](C)[C@H](O)[C@@H](O)[C@H]8O)[C@H](O)[C@H]7O)[C@@H](O)[C@H](O)[C@H]6O)CC[C@]45C)[C@]3(C)CO)OC[C@H](O)[C@@H]2O)[C@H](O)[C@H](O)[C@H]1O", "values": [{"measurement": "Activity", "setting": "[1]", "value": "Active"}]}
{"smiles": "CC1(C)CC[C@]2(C(=O)O[C@@H]3OC[C@@H](O)[C@H](O)[C@H]3O)CC[C@]3(C)C(=C2C1)CC[C@@H]1[C@@]2(C)CC[C@H](O[C@@H]4OC[C@H](O)[C@H](O)[C@H]4O)C(C)(C)[C@@H]2CC[C@]13C", "values": [{"measurement": "Activity", "setting": "THP-1 [2]", "value": "Active"}, {"measurement": "Activity", "setting": "THP-1 [3]", "value": "Active"}, {"measurement": "Activity", "setting": "THP-1 [8]", "value": "Non-Toxic"}, {"measurement": "half-life", "setting": "[4]", "value": 45, "unit": "min"}, {"measurement": "half-life", "setting": "[5]", "value": "> 120", "unit": "min"}, {"measurement": "CLint scaled", "setting": "[6]", "value": 38.6, "unit": "mL/min/kg"}, {"measurement": "Tmax", "setting": "[9]", "value": 160, "unit": "min"}, {"measurement": "Tmax", "setting": "[10]", "value": 4.8, "unit": "min"}, {"measurement": "Cmax", "setting": "[11]", "value": 728, "unit": "ng/mL"}, {"measurement": "Cmax", "setting": "[12]", "value": 3500, "unit": "ng/mL"}, {"measurement": "AUC(0-t)", "setting": "[13]", "value": 3000, "unit": "ng·h/mL"}, {"measurement": "AUC(0-t)", "setting": "[14]", "value": 3220, "unit": "ng·h/mL"}, {"measurement": "AUC(0-inf)", "setting": "[15]", "value": 3080, "unit": "ng·h/mL"}, {"measurement": "AUC(0-inf)", "setting": "[16]", "value": 3300, "unit": "ng·h/mL"}, {"measurement": "half-life", "setting": "[17]", "value": 68.4, "unit": "min"}, {"measurement": "half-life", "setting": "[18]", "value": 104, "unit": "min"}, {"measurement": "bioavailability", "setting": "[19]", "value": 18.6, "unit": "%"}]}
{"smiles": "C[C@H]1[C@H](C)CC[C@]2(C(=O)O)CC[C@]3(C)C(=CC[C@@H]4[C@@]5(C)C[C@@H](O)[C@H](O)C(C)(C)[C@@H]5CC[C@]43C)[C@H]12", "values": [{"measurement": "Activity", "setting": "[1]", "value": "Active"}]}
{"smiles": "CC1(C)CC[C@]2(C(=O)O)CC[C@]3(C)C(=CC[C@@H]4[C@@]5(C)CC[C@H](O[C@@H]6O[C@H](C(=O)O)[C@@H](O)[C@H](O[C@@H]7OC[C@@H](O)[C@H](O)[C@H]7O)[C@H]6O)C(C)(C)[C@@H]5CC[C@]43C)[C@@H]2C1", "values": [{"measurement": "Activity", "setting": "[1]", "value": "Active"}]}
{"smiles": "C[C@H]1[C@H](C)CC[C@]2(C(=O)O)CC[C@]3(C)C(=CC[C@@H]4[C@@]5(C)C[C@@H](O)[C@H](O)[C@@](C)(CO)[C@@H]5[C@H](O)C[C@]43C)[C@H]12", "values": [{"measurement": "Activity", "setting": "[1]", "value": "Active"}]}
